Results from the NIST ThermoML archive (doi:10.1021/je500381c).
± gives the expanded uncertainty stated by the source.

Assay: xn = mol fraction of the nth substance listed
Conditions: for mass density / viscosity: 100 kPa, Liquid; for mass density: Vibrating tube method; for surface tension liquid-gas: Drop volume

CCC12CC3CC(CC(C3)C1)C2 [1-ethyladamantane] + CCCCCCCO
Conditions | mass density [kg/m3] | surface tension liquid-gas [mN/m] | viscosity [mPa·s]
293.15 K, x2 = 0 | 937.11 ± 0.15 | – | 6.371 ± 0.1
293.15 K, x2 = 0.0999 | 927.59 ± 0.15 | – | 5.91 ± 0.093
293.15 K, x2 = 0.1999 | 917.88 ± 0.15 | – | 5.707 ± 0.09
293.15 K, x2 = 0.2988 | 907.92 ± 0.15 | – | 5.62 ± 0.089
293.15 K, x2 = 0.3991 | 897.36 ± 0.15 | – | 5.584 ± 0.088
293.15 K, x2 = 0.4998 | 886.28 ± 0.15 | – | 5.647 ± 0.089
293.15 K, x2 = 0.5995 | 874.78 ± 0.15 | – | 5.843 ± 0.092
293.15 K, x2 = 0.7 | 862.6 ± 0.15 | – | 6.077 ± 0.096
293.15 K, x2 = 0.8002 | 849.85 ± 0.16 | – | 6.41 ± 0.1
293.15 K, x2 = 0.9 | 836.45 ± 0.16 | – | 6.719 ± 0.11
298.15 K, x2 = 0 | 933.58 ± 0.15 | 29.87 ± 0.18 | 5.565 ± 0.088
298.15 K, x2 = 0.0999 | 924.02 ± 0.15 | 29.66 ± 0.18 | 5.136 ± 0.081
298.15 K, x2 = 0.1999 | 914.26 ± 0.15 | 29.21 ± 0.18 | 4.958 ± 0.078
298.15 K, x2 = 0.2988 | 904.28 ± 0.15 | 28.87 ± 0.18 | 4.86 ± 0.077
298.15 K, x2 = 0.3991 | 893.7 ± 0.15 | 28.72 ± 0.17 | 4.836 ± 0.076
298.15 K, x2 = 0.4998 | 882.65 ± 0.15 | 28.42 ± 0.17 | 4.859 ± 0.077
298.15 K, x2 = 0.5995 | 871.16 ± 0.15 | 28.1 ± 0.17 | 4.989 ± 0.079
298.15 K, x2 = 0.7 | 859.01 ± 0.16 | 27.75 ± 0.17 | 5.156 ± 0.081
298.15 K, x2 = 0.8002 | 846.29 ± 0.16 | 27.23 ± 0.17 | 5.422 ± 0.085
298.15 K, x2 = 0.9 | 832.93 ± 0.16 | 26.74 ± 0.16 | 5.683 ± 0.089
303.15 K, x2 = 0 | 929.99 ± 0.15 | – | 4.903 ± 0.078
303.15 K, x2 = 0.0999 | 920.37 ± 0.15 | – | 4.506 ± 0.071
303.15 K, x2 = 0.1999 | 910.61 ± 0.15 | – | 4.337 ± 0.069
303.15 K, x2 = 0.2988 | 900.6 ± 0.15 | – | 4.238 ± 0.067
303.15 K, x2 = 0.3991 | 890.03 ± 0.15 | – | 4.215 ± 0.067
303.15 K, x2 = 0.4998 | 878.99 ± 0.15 | – | 4.215 ± 0.067
303.15 K, x2 = 0.5995 | 867.51 ± 0.15 | – | 4.306 ± 0.068
303.15 K, x2 = 0.7 | 855.39 ± 0.16 | – | 4.424 ± 0.07
303.15 K, x2 = 0.8002 | 842.7 ± 0.16 | – | 4.63 ± 0.073
303.15 K, x2 = 0.9 | 829.37 ± 0.16 | – | 4.841 ± 0.076
308.15 K, x2 = 0 | 926.4 ± 0.15 | – | 4.348 ± 0.069
308.15 K, x2 = 0.0999 | 916.7 ± 0.15 | – | 3.965 ± 0.063
308.15 K, x2 = 0.1999 | 906.92 ± 0.15 | – | 3.814 ± 0.06
308.15 K, x2 = 0.2988 | 896.92 ± 0.15 | – | 3.722 ± 0.059
308.15 K, x2 = 0.3991 | 886.35 ± 0.15 | – | 3.692 ± 0.058
308.15 K, x2 = 0.4998 | 875.31 ± 0.15 | – | 3.681 ± 0.058
308.15 K, x2 = 0.5995 | 863.84 ± 0.16 | – | 3.742 ± 0.059
308.15 K, x2 = 0.7 | 851.75 ± 0.16 | – | 3.824 ± 0.06
308.15 K, x2 = 0.8002 | 839.08 ± 0.16 | – | 3.985 ± 0.063
308.15 K, x2 = 0.9 | 825.79 ± 0.16 | – | 4.154 ± 0.065
313.15 K, x2 = 0 | 922.81 ± 0.15 | – | 3.878 ± 0.061
313.15 K, x2 = 0.0999 | 913.02 ± 0.15 | – | 3.516 ± 0.056
313.15 K, x2 = 0.1999 | 903.22 ± 0.15 | – | 3.376 ± 0.053
313.15 K, x2 = 0.2988 | 893.21 ± 0.15 | – | 3.286 ± 0.052
313.15 K, x2 = 0.3991 | 882.64 ± 0.15 | – | 3.251 ± 0.051
313.15 K, x2 = 0.4998 | 871.61 ± 0.16 | – | 3.235 ± 0.051
313.15 K, x2 = 0.5995 | 860.15 ± 0.16 | – | 3.275 ± 0.052
313.15 K, x2 = 0.7 | 848.08 ± 0.16 | – | 3.331 ± 0.053
313.15 K, x2 = 0.8002 | 835.43 ± 0.16 | – | 3.454 ± 0.054
313.15 K, x2 = 0.9 | 822.17 ± 0.16 | – | 3.589 ± 0.057
318.15 K, x2 = 0 | 919.21 ± 0.15 | – | 3.478 ± 0.055
318.15 K, x2 = 0.0999 | 909.33 ± 0.15 | – | 3.135 ± 0.05
318.15 K, x2 = 0.1999 | 899.51 ± 0.15 | – | 3.003 ± 0.048
318.15 K, x2 = 0.2988 | 889.49 ± 0.15 | – | 2.922 ± 0.046
318.15 K, x2 = 0.3991 | 878.91 ± 0.15 | – | 2.882 ± 0.046
318.15 K, x2 = 0.4998 | 867.88 ± 0.16 | – | 2.859 ± 0.045
318.15 K, x2 = 0.5995 | 856.43 ± 0.16 | – | 2.884 ± 0.046
318.15 K, x2 = 0.7 | 844.37 ± 0.16 | – | 2.919 ± 0.046
318.15 K, x2 = 0.8002 | 831.75 ± 0.16 | – | 3.012 ± 0.047
318.15 K, x2 = 0.9 | 818.53 ± 0.16 | – | 3.12 ± 0.049
323.15 K, x2 = 0 | 915.62 ± 0.15 | – | 3.134 ± 0.05
323.15 K, x2 = 0.0999 | 905.62 ± 0.15 | – | 2.811 ± 0.045
323.15 K, x2 = 0.1999 | 895.76 ± 0.15 | – | 2.687 ± 0.043
323.15 K, x2 = 0.2988 | 885.74 ± 0.15 | – | 2.608 ± 0.041
323.15 K, x2 = 0.3991 | 875.17 ± 0.16 | – | 2.569 ± 0.041
323.15 K, x2 = 0.4998 | 864.13 ± 0.16 | – | 2.54 ± 0.04
323.15 K, x2 = 0.5995 | 852.69 ± 0.16 | – | 2.555 ± 0.04
323.15 K, x2 = 0.7 | 840.64 ± 0.16 | – | 2.573 ± 0.041
323.15 K, x2 = 0.8002 | 828.04 ± 0.16 | – | 2.644 ± 0.042
323.15 K, x2 = 0.9 | 814.85 ± 0.16 | – | 2.728 ± 0.043
328.15 K, x2 = 0 | 912.01 ± 0.15 | – | 2.838 ± 0.045
328.15 K, x2 = 0.0999 | 901.91 ± 0.15 | – | 2.531 ± 0.04
328.15 K, x2 = 0.1999 | 892.03 ± 0.15 | – | 2.413 ± 0.038
328.15 K, x2 = 0.2988 | 881.97 ± 0.16 | – | 2.338 ± 0.037
328.15 K, x2 = 0.3991 | 871.39 ± 0.16 | – | 2.299 ± 0.036
328.15 K, x2 = 0.4998 | 860.35 ± 0.16 | – | 2.267 ± 0.036
328.15 K, x2 = 0.5995 | 848.92 ± 0.16 | – | 2.271 ± 0.036
328.15 K, x2 = 0.7 | 836.88 ± 0.16 | – | 2.28 ± 0.036
328.15 K, x2 = 0.8002 | 824.29 ± 0.16 | – | 2.333 ± 0.037
328.15 K, x2 = 0.9 | 811.13 ± 0.16 | – | 2.399 ± 0.038
333.15 K, x2 = 0 | 908.41 ± 0.15 | – | 2.581 ± 0.041
333.15 K, x2 = 0.0999 | 898.19 ± 0.15 | – | 2.291 ± 0.036
333.15 K, x2 = 0.1999 | 888.26 ± 0.16 | – | 2.178 ± 0.034
333.15 K, x2 = 0.2988 | 878.19 ± 0.16 | – | 2.106 ± 0.033
333.15 K, x2 = 0.3991 | 867.59 ± 0.16 | – | 2.066 ± 0.033
333.15 K, x2 = 0.4998 | 856.55 ± 0.16 | – | 2.033 ± 0.032
333.15 K, x2 = 0.5995 | 845.11 ± 0.16 | – | 2.03 ± 0.032
333.15 K, x2 = 0.7 | 833.08 ± 0.16 | – | 2.033 ± 0.032
333.15 K, x2 = 0.8002 | 820.51 ± 0.16 | – | 2.07 ± 0.033
333.15 K, x2 = 0.9 | 807.38 ± 0.17 | – | 2.121 ± 0.033
